Results published in patent publication US20070042339A1, “Preservation of biomaterials with transported preservation agents” (priority 2003, published 2007).
Where two headings read alike, the source gives them in different places.

Key:
[1] = tested on: hepatocytes; type: cell-based, rat
From the text: The sandwich culture is a long-term culture technique that results in stable and differentiated hepatocytes. We evaluated albumin synthesis, urea production, and cytochrome P450 (CYP) activity of frozen-thawed hepatocytes as markers of synthetic, metabolic, and detoxification abilities of hepatocytes. Albumin production of 3OMG-loaded and cryopreserved hepatocytes stabilized following 7 days in culture (FIG. 11A). Daily average of albumin production (day 7-13) from 3OMG-loaded hepatocytes was approximately 60% of non-frozen control (1.29±0.19 μg and 2.14±0.26 μg, respectively) with statistically significant difference (p=0.014). […] The CYP activity was measured on day 3 and 7 after thawing.

[2] = tested on: hepatocytes; type: cell-based; details: rat, 60 min, 200 mM
Method: HTS without sugar supplement was used for control samples. […] Following storage, samples were rapidly thawed in 37° C. H2O for 2 min with gentle agitation.

[3] = tested on: lymphocytes, fibroblasts and hepatocytes; type: cell-based, murine; rat
Method: The conventional permeable cryoprotectants such as DMSO and glycerol benefit cells for preservation, but they are known to be toxic to the cells at the same time. […] The toxicity of various glucose compounds, D-glucose and DMSO was examined after loading. Cells were incubated with glucose-free DMEM supplemented with 0.2 M 3OMG, with 0.2 M 2DG or 1.4 M DMSO for 60 min at 37° C. After loading, calcein and ethidium homodimer were added to cell suspensions to assess viability. Cells were run through Beckton-Dickinson FACSCalibur flowcytometer to take emission reading at 530 nm and 630 nm of 5000 particles. High green and low red fluorescence (calcein positive) were scored as live, whereas high red and low green (ethidium positive) were scored dead.

[4] = tested on: lymphocytes, fibroblasts and hepatocytes; assay: MTT assay of metabolic activity after glucose loading (Example 1); type: cell-based, murine; rat; details: 1 hr at 37° C.
Method: However, it was considered to be possible that high accumulation of glucose compounds change metabolic activity of the cells. Therefore, metabolic activity after sugar loading was measured with the MTT assay. MTT assay is a colorimetric assay based on the activity of mitochondrial dehydrogenase activity. […] Cells were seeded on 96-well culture plates with 100 μL defined medium supplemented with various glucose compounds according to the experimental design for 1 hr at 37° C. At the end of the treatment period, 10 μL of MT solution (5 mg/mL) were added and incubated for 2 hrs at 37° C. At this time, 100 μL of detergent solution were added to the wells and after 24 hrs of incubation at 25° C., and the absorption value at 570 nm was measured in a microtiter reader.

[5] = tested on: murine B lymphocytes, murine fibroblasts, and rat primary hepatocytes; assay: Cryopreservation with non-metabolizable glucose compounds, post-thaw trypan blue viability (Example 1); type: cell-based; details: 0.2 M loading 60 min
Method: At first, these compounds were tested on cryopreservation, which is most common protocol for preservation of biomaterials. Glucose compounds are thought to prevent damaging effects of protein and lipid-membranes during storage. In addition, glucose compounds have a high glass transition temperature and cause the formation of stable glasses during storage. Cells were incubated with glucose-free DMEM or glucose-free DMEM with 0.2 M 2DG, or 0.2 M 3OMG for 60 min at 37° C. […] Samples were stored for up to 14 days. Following storage, samples were rapidly thawed in 37° C. H2O for 80 sec with gentle agitation. […] Samples were then centrifuged, supernatant decanted, and cells were resuspended in culture medium.

Compound: OC[C@H]1O[C@@](CO)(O[C@H]2O[C@H](CO)[C@@H](O)[C@H](O)[C@H]2O)[C@@H](O)[C@@H]1O [sucrose]
- hepatospecific functions (albumin, urea, CYP) in long-term culture after cryopreservation ([1]; collagen sandwich culture, 14 days): completely lost these functions in 5 days

Compound: O=C[C@H](O)[C@@H](O)[C@H](O)[C@H](O)CO [D-glucose]
- post-thaw viability, percent of non-frozen samples [2]: < 10%
- hepatospecific functions (albumin, urea, CYP) in long-term culture after cryopreservation [1]: completely lost these functions in 5 days

Compound: C[S+](C)[O-] [DMSO, dimethylsulfoxide]
- toxicity to the cells (percentage of dead cells after incubation) [3]: significant toxicity

Compound: OC[C@H]1OC(O)C[C@@H](O)[C@@H]1O (mixture of isomers) [2DG, 2-deoxy-D-glucose]
- metabolic activity (MTT) after loading, lymphocytes and fibroblasts ([4]; lymphocytes and fibroblasts): significant loss of metabolic activity
- metabolic activity (MTT) after loading, hepatocytes ([4]; primary isolated hepatocytes): not down-regulated
- viability after cryopreservation compared to non-glucose control [5]: significantly high viability
- post-thaw viability, percent of non-frozen samples [2]: 15%
